Test results as given in patent publication US20020193320A1, “C-2 modified erythromycin derivatives” (priority 1999, published 2002).

Legend:
Assay in all cases: In vitro antibacterial activity, agar dilution MIC
Format in all cases: cell-based
[1] = test system: Streptococcus Pneumonia GYR 1171; settings: code YY, 35-37° C., 20 to 24 hours
Protocol: (§1) Representative compounds of the present invention were assayed in vitro for antibacterial activity as follows: Twelve petri dishes containing successive aqueous dilutions of the test compound mixed with 10 mL of sterilized Brain Heart Infusion (BHI) agar (Difco 0418-01-5) were prepared. Each plate was inoculated with 1:100 (or 1:10 for slow-growing strains, such as Micrococcus and Streptococcus) dilutions of up to 32 different microorganisms, using a Steers replicator block. The inoculated plates were incubated at 35-37° C. for 20 to 24 hours. In addition, a control plate, using BHI agar containing no test compound, was prepared and incubated at the beginning and end of each test.
(§2) An additional plate containing a compound having known susceptibility patterns for the organisms being tested and belonging to the same antibiotic class as the test compound was also prepared and incubated as a further control, as well as to provide test-to-test comparability.
(§3) After incubation, each plate was visually inspected. The minimum inhibitory concentration (MIC) was defined as the lowest concentration of drug yielding no growth, a slight haze, or sparsely isolated colonies on the inoculum spot as compared to the growth control.

[2] = test system: Streptococcus Pneumonia ATCC 6303; settings: code XX, 35-37° C., 20 to 24 hours
Protocol: as §1, §2, §3

[3] = test system: Micrococcus luteus ATCC 4698; settings: code PP, BHI agar, 35-37° C., 20 to 24 hours
Protocol: as §1, §2, §3

[4] = test system: Streptococcus Pneumonia 5649; settings: code ZZA (code list: ZA), 35-37° C., 20 to 24 hours
Protocol: as §1, §2, §3

[5] = test system: Haemophilis Influenzae DILL AMP R; settings: code WW, 35-37° C., 20 to 24 hours
Protocol: as §1, §2, §3

[6] = test system: Streptococcus pyogenes EES61; settings: code LL, BHI agar, 35-37° C., 20 to 24 hours
Protocol: as §1, §2, §3

[7] = test system: Staphylococcus aureus CMX 553; set-up: unit not given here; settings: code FF, BHI agar, 35-37° C., 20 to 24 hours
Protocol: as §1, §2, §3

Escherichia coli JUHL = test system: Escherichia coli JUHL; set-up: unit not given here; settings: code QQ, BHI agar, 35-37° C., 20 to 24 hours
Protocol: as §1, §2, §3

[8] = test system: Streptococcus agalactiae CMX 508; set-up: unit not given here; settings: code KK, BHI agar, 35-37° C., 20 to 24 hours
Protocol: as §1, §2, §3

[9] = test system: Staphylococcus aureus A-5177; set-up: unit not given here; settings: code BB, BHI agar, 35-37° C., 20 to 24 hours
Protocol: as §1, §2, §3

Candida albicans CCH 442 = test system: Candida albicans CCH 442; set-up: unit not given here; settings: code TT, BHI agar, 35-37° C., 20 to 24 hours
Protocol: as §1, §2, §3

[10] = test system: Streptococcus pyogenes PIU 2548; set-up: unit not given here; settings: code NN, BHI agar, 35-37° C., 20 to 24 hours
Protocol: as §1, §2, §3

Escherichia coli DC-2 = test system: Escherichia coli DC-2; set-up: unit not given here; settings: code SS, BHI agar, 35-37° C., 20 to 24 hours
Protocol: as §1, §2, §3

[11] = test system: Staphylococcus aureus 1775; set-up: unit not given here; settings: code GG, BHI agar, 35-37° C., 20 to 24 hours
Protocol: as §1, §2, §3

[12] = test system: Streptococcus pyogenes 930; set-up: unit not given here; settings: code MM, BHI agar, 35-37° C., 20 to 24 hours
Protocol: as §1, §2, §3

[13] = test system: Staphylococcus aureus NCTC 10649M; set-up: unit not given here; settings: code EE, BHI agar, 35-37° C., 20 to 24 hours
Protocol: as §1, §2, §3

[14] = test system: Nocardia Asteroides ATCC 99700; set-up: unit not given here; settings: code VV, BHI agar, 35-37° C., 20 to 24 hours
Protocol: as §1, §2, §3

[15] = test system: Mycobacterium smegmatis ATCC 114; set-up: unit not given here; settings: code UU, BHI agar, 35-37° C., 20 to 24 hours
Protocol: as §1, §2, §3

[16] = test system: Micrococcus luteus ATCC 9341; set-up: unit not given here; settings: code OO, BHI agar, 35-37° C., 20 to 24 hours
Protocol: as §1, §2, §3

[17] = test system: Staphylococcus epidermidis 3519; set-up: unit not given here; settings: code HH, BHI agar, 35-37° C., 20 to 24 hours
Protocol: as §1, §2, §3

[18] = test system: Staphylococcus aureus ATCC 6538P; set-up: unit not given here; settings: code AA, BHI agar, 35-37° C., 20 to 24 hours
Protocol: as §1, §2, §3

[19] = test system: Staphylococcus aureus CMX 642A; set-up: unit not given here; settings: code DD, BHI agar, 35-37° C., 20 to 24 hours
Protocol: as §1, §2, §3

[20] = test system: Enterococcus faecium ATCC X043; set-up: unit not given here; settings: code II, BHI agar, 35-37° C., 20 to 24 hours
Protocol: as §1, §2, §3

[21] = test system: Staphylococcus aureus A-5278; set-up: unit not given here; settings: code CC, BHI agar, 35-37° C., 20 to 24 hours
Protocol: as §1, §2, §3

Escherichia coli SS = test system: Escherichia coli SS; set-up: unit not given here; settings: code RR, BHI agar, 35-37° C., 20 to 24 hours
Protocol: as §1, §2, §3

[22] = test system: Streptococcus bovis A-5169; set-up: unit not given here; settings: code JJ, BHI agar, 35-37° C., 20 to 24 hours
Protocol: as §1, §2, §3

[23] = test system: Streptococcus Pneumonia 5979; settings: code ZZ, 35-37° C., 20 to 24 hours
Protocol: as §1, §2, §3

SMILES | Antibacterial Activity (MIC) [3] | Antibacterial Activity (MIC) [6] | Antibacterial Activity (MIC) [7] | Antibacterial Activity (MIC) (Escherichia coli JUHL) | Antibacterial Activity (MIC) [8] | Antibacterial Activity (MIC) [9] | Antibacterial Activity (MIC) (Candida albicans CCH 442) | Antibacterial Activity (MIC) [10] | Antibacterial Activity (MIC) (Escherichia coli DC-2) | Antibacterial Activity (MIC) [11] | Antibacterial Activity (MIC) [12] | Antibacterial Activity (MIC) [13] | Antibacterial Activity (MIC) [14] | Antibacterial Activity (MIC) [15] | Antibacterial Activity (MIC) [16] | Antibacterial Activity (MIC) [17] | Antibacterial Activity (MIC) [18] | Antibacterial Activity (MIC) [19] | Antibacterial Activity (MIC) [20] | Antibacterial Activity (MIC) [21] | other results
CC[C@H]1OC(=O)[C@H](C)[C@@H](O[C@H]2C[C@@](C)(OC)[C@@H](O)[C@H](C)O2)[C@H](C)[C@@H](O[C@@H]2O[C@H](C)C[C@H](N(C)C)[C@H]2O)[C@](C)(O)C[C@@H](C)C(=O)[C@H](C)[C@@H](O)[C@]1(C)O [Ery. A, Erythromycin A, reference compound] | 0.2 | 0.05 | 0.39 | >100 | 0.05 | 3.1 | >100 | 6.2 | >100 | >100 | >100 | 0.39 | 0.1 | 3.1 | 0.05 | 0.39 | 0.2 | 0.39 | 0.05 | >100 | Antibacterial Activity (MIC) [1]: 0.06; Antibacterial Activity (MIC) [2]: 0.06; Antibacterial Activity (MIC) [4]: 16; Antibacterial Activity (MIC) [5]: 4; Antibacterial Activity (MIC) (Escherichia coli SS): 0.78; Antibacterial Activity (MIC) [22]: 0.02
CCC1OC(=O)C(C)(CC=Cc2ccccc2)C(=O)C(C)C(OC2OC(C)CC(N(C)C)C2O)C(C)(OC)CC(C)C(=O)C(C)C2NC(=O)OC12C (stereo not shown) [Example 1, Compound of formula (II): R^a is CH3, R^b is H, Y and Z together are O, T is —NH—, R is —CH2CH═CH-(phenyl)] | 6.2 | 12.5 | 50 | >100 | 12.5 | 25 | 100 | 12.5 | >100 | 100 | 50 | 50 | 25 | 25 | 3.1 | 50 | 25 | 25 | 25 | 100 | Antibacterial Activity (MIC) [1]: 4; Antibacterial Activity (MIC) [2]: 8; Antibacterial Activity (MIC) [23]: 64; Antibacterial Activity (MIC) [4]: 16; Antibacterial Activity (MIC) [5]: >128; Antibacterial Activity (MIC) (Escherichia coli SS): 50; Antibacterial Activity (MIC) [22]: 12.5
CCC1OC(=O)C(C)(O)C(=O)C(C)C(OC2OC(C)CC(N(C)C)C2O)C(C)(OC)CC(C)C(=O)C(C)C2N(CCCCc3ccccc3)C(=O)OC12C (stereo not shown) [Example 10, Compound of formula (II): R^a is CH3, R^b is H, Y and Z together are O, T is —N(W(R^g))-, W is —(CH2)p-, p is 4, R^g is phenyl R is —OH] | 0.39 | 0.2 | 1.56 | >100 | 0.2 | 1.56 | 25 | 1.56 | >100 | 25 | 6.2 | 1.56 | 1.56 | 1.56 | 0.39 | 1.56 | 1.56 | 1.56 | 0.39 | 25 | Antibacterial Activity (MIC) ([5]; unit assumed): 16 µg/mL; Antibacterial Activity (MIC) (Escherichia coli SS): 3.1; Antibacterial Activity (MIC) [22]: 0.2
